Measured values reported in PubChem BioAssay (NCI).
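Tested at 5 concentrations; 48 h exposure; 96-well plates; endpoints linearly interpolated, else capped at highest concentration. GI50 marks 50% less growth. TGI denotes the concentration required for complete inhibition of growth.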

Experiments:
Assay in all cases: NCI anticancer screen, dose series, 48 h
RPMI-8226 leukemia = system: RPMI-8226 leukemia
UACC-62 melanoma = system: UACC-62 melanoma
SW-620 colon = system: SW-620 colon
A549 NSCLC = system: A549 NSCLC
T-47D breast = system: T-47D breast
SNB-19 CNS = system: SNB-19 CNS
PC-3 prostate = system: PC-3 prostate
SF-268 CNS = system: SF-268 CNS
NCI-H522 lung = system: NCI-H522 lung
SN12C renal = system: SN12C renal
HL-60(TB) leukemia = system: HL-60(TB) leukemia
K-562 leukemia = system: K-562 leukemia
MDA-MB-231 breast = system: MDA-MB-231 breast
MOLT-4 leukemia = system: MOLT-4 leukemia
ACHN renal = system: ACHN renal
HCT-116 colon = system: HCT-116 colon
HOP-62 NSCLC = system: HOP-62 NSCLC
NCI-H460 lung = system: NCI-H460 lung
HOP-92 NSCLC = system: HOP-92 NSCLC
UACC-257 melanoma = system: UACC-257 melanoma
HCC-2998 colon = system: HCC-2998 colon
SF-295 CNS = system: SF-295 CNS
SK-MEL-2 melanoma = system: SK-MEL-2 melanoma
LOX IMVI melanoma = system: LOX IMVI melanoma
NCI-H23 lung = system: NCI-H23 lung
COLO 205 colon = system: COLO 205 colon
EKVX NSCLC = system: EKVX NSCLC
NCI/ADR-RES ovarian = system: NCI/ADR-RES ovarian
CCRF-CEM leukemia = system: CCRF-CEM leukemia
CAKI-1 renal = system: CAKI-1 renal
SK-OV-3 ovarian = system: SK-OV-3 ovarian
A498 renal = system: A498 renal
MCF7 breast = system: MCF7 breast
SF-539 CNS = system: SF-539 CNS
HS 578T breast = system: HS 578T breast
786-0 renal = system: 786-0 renal
OVCAR-5 ovarian = system: OVCAR-5 ovarian
U251 CNS = system: U251 CNS
RXF 393 renal = system: RXF 393 renal
SK-MEL-5 melanoma = system: SK-MEL-5 melanoma
KM12 colon = system: KM12 colon
SR leukemia = system: SR leukemia
TK-10 renal = system: TK-10 renal
HT29 colon = system: HT29 colon
NCI-H226 lung = system: NCI-H226 lung
M14 melanoma = system: M14 melanoma
IGROV1 ovarian = system: IGROV1 ovarian
SNB-75 CNS = system: SNB-75 CNS
MALME-3M melanoma = system: MALME-3M melanoma
SK-MEL-28 melanoma = system: SK-MEL-28 melanoma
DU-145 prostate = system: DU-145 prostate
MDA-MB-435 = system: MDA-MB-435
HCT-15 colon = system: HCT-15 colon
BT-549 breast = system: BT-549 breast
UO-31 renal = system: UO-31 renal
OVCAR-4 ovarian = system: OVCAR-4 ovarian
OVCAR-8 ovarian = system: OVCAR-8 ovarian

Oc1ccc(CSc2nnc(-c3ccc(Oc4ccccc4)cc3)n2-c2ccccc2)c2cccnc12
GI50 (RPMI-8226 leukemia): 146 nM | TGI (RPMI-8226 leukemia): > 100000 nM | GI50 (UACC-62 melanoma): 256 nM | TGI (UACC-62 melanoma): 1130 nM | GI50 (SW-620 colon): 182 nM | TGI (SW-620 colon): > 100000 nM | GI50 (A549 NSCLC): 133 nM | TGI (A549 NSCLC): > 33200 nM | GI50 (T-47D breast): 263 nM | TGI (T-47D breast): 9180 nM | GI50 (SNB-19 CNS): 223 nM | TGI (SNB-19 CNS): > 100000 nM | GI50 (PC-3 prostate): 83.4 nM | TGI (PC-3 prostate): > 100000 nM | GI50 (SF-268 CNS): 73.9 nM | TGI (SF-268 CNS): > 100000 nM | GI50 (NCI-H522 lung): 226 nM | GI50 (SN12C renal): 275 nM | TGI (SN12C renal): > 100000 nM | GI50 (HL-60(TB) leukemia): 79.8 nM | TGI (HL-60(TB) leukemia): 1060 nM | GI50 (K-562 leukemia): 155 nM | TGI (K-562 leukemia): > 53100 nM | GI50 (MDA-MB-231 breast): 355 nM | TGI (MDA-MB-231 breast): 33000 nM | GI50 (MOLT-4 leukemia): 100 nM | TGI (MOLT-4 leukemia): > 38500 nM | GI50 (ACHN renal): 137 nM | TGI (ACHN renal): 10900 nM | GI50 (HCT-116 colon): 41.3 nM | TGI (HCT-116 colon): 16000 nM | GI50 (HOP-62 NSCLC): 304 nM | TGI (HOP-62 NSCLC): > 34600 nM | GI50 (NCI-H460 lung): 38.5 nM | GI50 (HOP-92 NSCLC): 213 nM | TGI (HOP-92 NSCLC): 31800 nM | GI50 (UACC-257 melanoma): 186 nM | TGI (UACC-257 melanoma): 843 nM | GI50 (HCC-2998 colon): 154 nM | TGI (HCC-2998 colon): > 100000 nM | GI50 (SF-295 CNS): 208 nM | TGI (SF-295 CNS): > 69200 nM | GI50 (SK-MEL-2 melanoma): 442 nM | TGI (SK-MEL-2 melanoma): > 25500 nM | GI50 (LOX IMVI melanoma): 169 nM | TGI (LOX IMVI melanoma): 7180 nM | GI50 (NCI-H23 lung): 260 nM | TGI (NCI-H23 lung): 25600 nM | GI50 (COLO 205 colon): 1270 nM | TGI (COLO 205 colon): > 100000 nM | GI50 (EKVX NSCLC): 339 nM | TGI (EKVX NSCLC): > 100000 nM | GI50 (NCI/ADR-RES ovarian): 270 nM | TGI (NCI/ADR-RES ovarian): 6990 nM | GI50 (CCRF-CEM leukemia): 72.9 nM | TGI (CCRF-CEM leukemia): > 100000 nM | GI50 (CAKI-1 renal): 313 nM | TGI (CAKI-1 renal): 15200 nM | GI50 (SK-OV-3 ovarian): 307 nM | GI50 (A498 renal): 641 nM | TGI (A498 renal): 19800 nM | GI50 (MCF7 breast): 94.2 nM | TGI (MCF7 breast): > 100000 nM | GI50 (SF-539 CNS): 230 nM | TGI (SF-539 CNS): 9870 nM | GI50 (HS 578T breast): 325 nM | TGI (HS 578T breast): > 100000 nM | GI50 (786-0 renal): 527 nM | TGI (786-0 renal): 11300 nM | GI50 (OVCAR-5 ovarian): 639 nM | TGI (OVCAR-5 ovarian): > 100000 nM | GI50 (U251 CNS): 69.6 nM | TGI (U251 CNS): > 35600 nM | GI50 (RXF 393 renal): 981 nM | TGI (RXF 393 renal): > 58700 nM | GI50 (SK-MEL-5 melanoma): 222 nM | TGI (SK-MEL-5 melanoma): 2400 nM | GI50 (KM12 colon): 176 nM | TGI (KM12 colon): > 100000 nM | GI50 (SR leukemia): 66.4 nM | TGI (SR leukemia): 20300 nM | GI50 (TK-10 renal): 153 nM | TGI (TK-10 renal): > 42400 nM | GI50 (HT29 colon): 4100 nM | TGI (HT29 colon): > 100000 nM | GI50 (NCI-H226 lung): 369 nM | TGI (NCI-H226 lung): > 100000 nM | GI50 (M14 melanoma): 95.4 nM | TGI (M14 melanoma): 1120 nM | GI50 (IGROV1 ovarian): 166 nM | TGI (IGROV1 ovarian): > 55900 nM | GI50 (SNB-75 CNS): 188 nM | TGI (SNB-75 CNS): 22700 nM | GI50 (MALME-3M melanoma): 340 nM | TGI (MALME-3M melanoma): 11000 nM | GI50 (SK-MEL-28 melanoma): 247 nM | TGI (SK-MEL-28 melanoma): > 100000 nM | GI50 (DU-145 prostate): 340 nM | TGI (DU-145 prostate): > 100000 nM | GI50 (MDA-MB-435): 57 nM | TGI (MDA-MB-435): > 100000 nM | GI50 (HCT-15 colon): 179 nM | TGI (HCT-15 colon): > 100000 nM | GI50 (BT-549 breast): 105 nM | TGI (BT-549 breast): > 100000 nM | GI50 (UO-31 renal): 142 nM | TGI (UO-31 renal): 2450 nM | GI50 (OVCAR-4 ovarian): 451 nM | TGI (OVCAR-4 ovarian): > 72300 nM | GI50 (OVCAR-8 ovarian): 146 nM | TGI (OVCAR-8 ovarian): > 46500 nM
